# Reference: ChEMBL document CHEMBL1201862, “PubChem BioAssay data set” (2004)
#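 Results reflect a 48-hour exposure of cells in 96-well plates to compound at five concentrations. Abbreviation: GI50, concentration required for 50% inhibition of growth.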 Activity calls are given as the source filed them. Cut-off read from the data, not from the text of the source: active = GI50 up to about 1.1 µM and inactive = higher. Where a SMILES comes first, the peptide text is derived from it. [ ]: non-standard residue; d: D form. The star is where a group is joined. Phe(2-OMe) = COc1ccccc1C[CH](N)C(=O)O; Cbz = O=C(OCc1ccccc1)*; OBn = c1ccc(CO*)cc1
# Tests used:
# Assay in all cases: NCI tumour cell line growth inhibition, 48 h
# [1] = system: SK-MEL-2
# [2] = system: SK-OV-3
# [3] = system: Hs-578T
# [4] = system: SW-620
# [5] = system: UACC-62
# [6] = system: SR
# [7] = system: ACHN
# [8] = system: HOP-62
# [9] = system: OVCAR-8
# [10] = system: A549
# [11] = system: IGROV-1
# [12] = system: SK-MEL-5
# [13] = system: HCT-116
# [14] = system: LOX IMVI
# [15] = system: RPMI-8226
# [16] = system: TK-10
# [17] = system: U-251
# [18] = system: UO-31
# [19] = system: COLO 205
# [20] = system: T47D
SMILES,GI50 [1],GI50 [2],GI50 [3],GI50 [4],GI50 [5],GI50 [6],GI50 [7],GI50 [8],GI50 [9],GI50 [10],GI50 [11],GI50 [12],GI50 [13],GI50 [14],GI50 [15],GI50 [16],GI50 [17],GI50 [18],GI50 [19],GI50 [20]
N#Cc1nc(-c2ccsc2)oc1N,> 100 µM (inactive),> 100 µM (inactive),> 100 µM (inactive),> 100 µM (inactive),> 100 µM (inactive),> 100 µM (inactive),> 100 µM (inactive),> 100 µM (inactive),> 100 µM (inactive),> 100 µM (inactive),71.8 µM (inactive),> 100 µM (inactive),> 100 µM (inactive),> 100 µM (inactive),77.4 µM (inactive),> 100 µM (inactive),> 100 µM (inactive),64.1 µM (inactive),,
C=CCN(CC=C)Cn1c(=S)sc2ccccc21,> 100 µM (inactive),91.4 µM (inactive),> 100 µM (inactive),48.8 µM (inactive),55.1 µM (inactive),,> 100 µM (inactive),> 100 µM (inactive),> 100 µM (inactive),> 100 µM (inactive),36.6 µM (inactive),28.8 µM (inactive),> 100 µM (inactive),17.8 µM (inactive),,> 100 µM (inactive),> 100 µM (inactive),38.8 µM (inactive),48.6 µM (inactive),
CCOc1snc(C(Cl)(Cl)Cl)c1Cl,,28.6 µM (inactive),18.9 µM (inactive),30.3 µM (inactive),19.4 µM (inactive),14 µM (inactive),7.85 µM (inactive),27.4 µM (inactive),24.4 µM (inactive),17.5 µM (inactive),31 µM (inactive),7.83 µM (inactive),17.3 µM (inactive),16.9 µM (inactive),15.5 µM (inactive),23.1 µM (inactive),27.7 µM (inactive),5.58 µM (inactive),18.8 µM (inactive),
CCN(CC)CCCC(C)NC(=O)c1cc(-c2nccn2C)nc2ccc(C)cc12 (stereo unspecified),> 100 µM (inactive),,,> 100 µM (inactive),> 100 µM (inactive),< 0.01 µM (active),> 100 µM (inactive),> 100 µM (inactive),> 100 µM (inactive),> 100 µM (inactive),> 100 µM (inactive),> 100 µM (inactive),> 100 µM (inactive),> 100 µM (inactive),> 100 µM (inactive),> 100 µM (inactive),> 100 µM (inactive),> 100 µM (inactive),> 100 µM (inactive),> 100 µM (inactive)
CC(C)CC12CC3CCC(CNC1=O)C32C (stereo unspecified),> 100 µM (inactive),> 100 µM (inactive),,> 100 µM (inactive),> 100 µM (inactive),63.7 µM (inactive),> 100 µM (inactive),> 100 µM (inactive),> 100 µM (inactive),> 100 µM (inactive),> 100 µM (inactive),> 100 µM (inactive),78.9 µM (inactive),> 100 µM (inactive),49.9 µM (inactive),> 100 µM (inactive),> 100 µM (inactive),> 100 µM (inactive),> 100 µM (inactive),
COC(=O)C(Cc1ccccc1OC)NC(=O)C(CC(=O)OCc1ccccc1)NC(=O)OCc1ccccc1 (stereo unspecified) (Cbz-Asp(OBn)-[Phe(2-OMe)]-OMe; configuration not given here),> 100 µM (inactive),,> 100 µM (inactive),> 100 µM (inactive),82 µM (inactive),27.9 µM (inactive),> 100 µM (inactive),> 100 µM (inactive),> 100 µM (inactive),60.3 µM (inactive),> 100 µM (inactive),> 100 µM (inactive),55.5 µM (inactive),,41 µM (inactive),> 100 µM (inactive),97.5 µM (inactive),64.6 µM (inactive),46.3 µM (inactive),
